Reference: US10932472B2, “Coffee extract and its agrochemical use against plant pathogens” (KAMAD KNOWLEDGE SOLUTIONS SL, priority 2013, dated 2021)

How the values were obtained:
Details in all cases: in vitro conditions
Botrytis cinerea = assay: In vitro inhibition of mycelial growth on amended PDA media; format: cell-based
Experimental: (§1) Additionally, an in vitro efficacy test was performed in order to determine the effect of PA5 against other Phytopathogens. Each pathogen strain was exposed to 0.5 and 2 cc/l, amended to PDA media. The inhibition percentage was evaluated against the control during 7 days.

Phytophthora capcisi = assay: as above; format: cell-based
Experimental: as §1

Collectotrichum sp = assay: as above; format: cell-based
Experimental: as §1

[1] = system: coffee leaf rust uredospores; assay: In vitro germination of coffee leaf rust uredospores (laboratory tests 2013); format: cell-based, Hemileia vastarix
Experimental: A laboratory methodology to understand the mode of action of PA1 (1%) was developed. The efficacy was performed using coffee leaf rust uredospores, collected in the field.

Q: How did the growth inhibition (Botrytis cinerea) turn out when `O=C(O)c1ccc(O)c(O)c1` [PA, 3,4-dihydroxybenzoic acid] was run?
A: inhibits the growth

Q: And the growth inhibition (Phytophthora capcisi)?
A: inhibits the growth

Q: And the growth inhibition (Collectotrichum sp)?
A: inhibits the growth

Q: What about the “concentration with direct fungicide action on uredospores germination” value [1] of the same molecule?
A: 0.25 mg/mL
